Key:
[1] = molecular target: 5-hydroxytryptamine receptor 2A (Homo sapiens, UniProt P28223); test: Antagonist activity at 5HTR2A (unknown origin) assessed as inhibition of 5-HTR2A
hERG (KCNH2) = hERG (KCNH2) (Homo sapiens, UniProt Q12809); test: Inhibition of hERG at 10 uM relative to control; type: toxicity
Chain of hERG (KCNH2) (Q12809 whole entry): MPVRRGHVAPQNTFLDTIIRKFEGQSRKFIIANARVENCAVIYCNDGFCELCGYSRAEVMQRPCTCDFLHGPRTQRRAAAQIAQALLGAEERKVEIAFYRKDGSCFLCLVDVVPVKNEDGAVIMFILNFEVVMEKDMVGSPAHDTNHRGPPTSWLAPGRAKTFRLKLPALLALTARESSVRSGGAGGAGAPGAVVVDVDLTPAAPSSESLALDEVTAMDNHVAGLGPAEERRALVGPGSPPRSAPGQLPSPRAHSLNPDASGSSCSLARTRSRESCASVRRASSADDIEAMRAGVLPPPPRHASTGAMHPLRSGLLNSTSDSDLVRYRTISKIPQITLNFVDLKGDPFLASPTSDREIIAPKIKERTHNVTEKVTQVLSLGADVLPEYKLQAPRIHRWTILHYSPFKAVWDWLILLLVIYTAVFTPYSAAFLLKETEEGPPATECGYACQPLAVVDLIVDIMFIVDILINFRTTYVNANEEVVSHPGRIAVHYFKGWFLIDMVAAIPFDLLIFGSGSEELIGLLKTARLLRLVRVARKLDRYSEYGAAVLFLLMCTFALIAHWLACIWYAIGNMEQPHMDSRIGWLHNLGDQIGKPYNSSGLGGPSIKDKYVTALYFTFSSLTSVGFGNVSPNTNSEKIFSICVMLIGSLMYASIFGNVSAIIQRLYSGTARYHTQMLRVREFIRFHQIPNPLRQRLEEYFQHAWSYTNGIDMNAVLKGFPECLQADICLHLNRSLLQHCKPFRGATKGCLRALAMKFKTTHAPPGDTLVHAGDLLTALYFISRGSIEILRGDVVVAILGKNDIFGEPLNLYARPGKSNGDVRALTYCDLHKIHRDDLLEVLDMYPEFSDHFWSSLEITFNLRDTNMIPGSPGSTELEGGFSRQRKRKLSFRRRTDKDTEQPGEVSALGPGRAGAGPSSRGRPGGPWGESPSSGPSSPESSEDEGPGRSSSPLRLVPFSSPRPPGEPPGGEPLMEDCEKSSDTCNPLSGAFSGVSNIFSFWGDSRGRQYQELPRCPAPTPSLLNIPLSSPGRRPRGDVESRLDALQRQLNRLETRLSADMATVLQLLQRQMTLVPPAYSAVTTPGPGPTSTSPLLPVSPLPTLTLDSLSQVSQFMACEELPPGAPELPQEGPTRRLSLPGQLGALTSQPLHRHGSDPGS

Chain of 5-hydroxytryptamine receptor 2A (P28223 whole entry): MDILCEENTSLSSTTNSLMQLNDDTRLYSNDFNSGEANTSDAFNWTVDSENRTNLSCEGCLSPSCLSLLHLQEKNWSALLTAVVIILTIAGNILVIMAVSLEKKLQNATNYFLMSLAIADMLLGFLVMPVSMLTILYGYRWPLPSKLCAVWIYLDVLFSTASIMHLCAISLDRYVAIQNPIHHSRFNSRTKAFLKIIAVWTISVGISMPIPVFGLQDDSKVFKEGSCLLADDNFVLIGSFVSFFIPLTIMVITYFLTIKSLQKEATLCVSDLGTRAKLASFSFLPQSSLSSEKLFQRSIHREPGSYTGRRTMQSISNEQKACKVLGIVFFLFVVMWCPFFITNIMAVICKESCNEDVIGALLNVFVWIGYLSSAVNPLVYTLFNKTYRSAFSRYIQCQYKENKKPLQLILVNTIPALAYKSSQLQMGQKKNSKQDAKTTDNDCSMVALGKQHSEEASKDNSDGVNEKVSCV

| SMILES | IC50 [1] | inhibition at 10 µM (hERG (KCNH2)) |
| --- | --- | --- |
| O=C(c1ccc(F)cc1)C1CCN(CC(O)COc2ccc(CNC(=O)N(Cc3ccc(F)cc3)C3CCNCC3)cc2)CC1 (stereo not given) | 667 nM | – |
| O=C(NCc1ccc(OCC(O)CN2CCN(c3nsc4ccccc34)CC2)cc1)N(Cc1ccc(F)cc1)C1CCNCC1 (stereo not given) | 54.2 nM | – |
| O=C(NCc1ccc(OCC(O)CN2CCN(c3cccc(Cl)c3Cl)CC2)cc1)N(Cc1ccc(F)cc1)C1CCNCC1 (stereo not given) | 91.8 nM | – |
| O=C(NCc1ccc(OCC(O)CN2CCN(c3noc4cc(F)ccc34)CC2)cc1)N(Cc1c(F)cc(F)cc1F)C1CCNCC1 (stereo not given) | 36.4 nM | 83.6% |

Reference: ChEMBL document CHEMBL6096690, “Synthesis and Biological Evaluation of Peripheral HTR2A Antagonists for Colorectal Cancer” (J Med Chem, 2025)
